Consider 28 compounds from patent publication US7723332B2, “Aryl sulfonamides useful for modulation of the progesterone receptor” (Wyeth LLC, priority 2007, dated 2010).

Molecules are shown by their SMILES.

One assay deals with alkaline phosphatase activity in T47D cells. As to the kind of experiment: Effects of progestins and antiprogestins on alkaline phosphatase activity in T47D cells. Type of assay: cell-based. The note with it: Homo sapiens; T47D alkaline phosphatase assay; antagonist mode in the presence of 1 nM progesterone; 24 hours. As for the experimental part:
Effects of Progestins and Antiprogestins on Alkaline Phosphatase Activity in T47D Cells
This example was performed to identify progestins or antiprogestins by determining a compound's effect on alkaline phosphatase activity in T47D cells.
Culture medium: DMEM:F12 (1:1) (GIBCO, BRL) supplemented with 5% (v/v) charcoal stripped fetal bovine serum (not heat-inactivated), 100 U/mL penicillin, 100 μg/mL streptomycin, and 2 mM the GlutaMax™ reagent (GIBCO, BRL).
Alkaline phosphatase assay buffer: • I. 0.1M Tris-HCl, pH 9.8, containing 0.2% the Triton® X-100 reagent • II. 0.1 M Tris-HCl, pH 9.8, containing 4 mM p-nitrophenyl phosphate (Sigma).
Frozen T47D cells were thawed in a 37° C. water bath and diluted to 280,000 cells/mL in culture medium. To each well in a 96-well plate (Falcon, Becton Dickinson Labware), 180 μL of diluted cell suspension was added. Twenty μL of reference or test compounds diluted in the culture medium was then added to each well. When testing for progestin antagonist activity, reference antiprogestins or test compounds were added in the presence of 1 nM progesterone. The cells were incubated at 37° C. in a 5% CO2/humidified atmosphere for 24 hours. NOTE: For high throughput screening, one concentration of each compound was tested at 0.3 μg/mL. Based on an average molecular weight of 300 g/mol for the compounds in the library, the concentration was approximately 1 μM. Subsequently, active compounds were tested in dose response assays to determine EC50 and IC50.
At the end of treatment, the medium was removed from the plate. Fifty μL of assay buffer I was added to each well. The plates were shaken in a titer plate shaker for 15 minutes. 150 μL of assay buffer II was then added to each well. Optical density measurements were taken at 5 minute intervals for 30 minutes at a test wavelength of 405 nm.
For reference and test compounds, a dose response curve was generated for dose (X-axis) vs. the rate of enzyme reaction (slope) (Y-axis). Square root-transformed data was used for analysis of variance and nonlinear dose response curve fitting for both agonist and antagonist modes. Huber weighting was used to down-weight the effects of outliners. EC50 or IC50 values were calculated from the retransformed values. JMP software (SAS Institute, Inc.) was used for both one-way analysis of variance and non-4 linear dose response analysis in both single dose and dose response studies.
Progesterone and trimegestone are reference progestins known in the art and typically show an EC50 of about 0.1 nM to about 2.0 nM.
One may read the IC50 as the concentration at which inhibition is half-maximal. Regarding `CN(C)c1cc(-c2ccc(C#N)n2C)ccc1S(=O)(=O)N(C)C` [Example 58, 4-(5-cyano-1-methyl-1H-pyrrol-2-yl)-2-(dimethylamino)-N,N-dimethylbenzenesulfonamide], the IC50 was determined as 25.9 nM. On to `CCNS(=O)(=O)c1ccc(-c2ccc(C#N)n2C)cc1C(F)(F)F` [Example 24, 4-(5-cyano-1-methyl-1H-pyrrol-2-yl)-N-ethyl-2-(trifluoromethyl)benzenesulfonamide], for which the IC50 turned out to be 45.8 nM.

With `CCCNS(=O)(=O)c1ccc(-c2ccc(C#N)n2C)cc1OC(F)(F)F` [Example 52, 4-(5-cyano-1-methyl-1H-pyrrol-2-yl)-N-propyl-2-(trifluoromethoxy)benzenesulfonamide], the IC50 was 8.4 nM.

Consider `CNS(=O)(=O)c1ccc(-c2ccc(C#N)n2C)cc1` [Example 1, 4-(5-cyano-1-methyl-1H-pyrrol-2-yl)-N-methylbenzenesulfonamide], for which the IC50 turned out to be 13.9 nM. As for `CCN(CC)S(=O)(=O)c1ccc(-c2ccc(C#N)n2C)cc1` [Example 8, 4-(5-cyano-1-methyl-1H-pyrrol-2-yl)-N,N-diethylbenzenesulfonamide], the IC50 came to 48.4 nM.

As to `Cn1c(C#N)ccc1-c1ccc(S(=O)(=O)NC2CC2)c(C(F)(F)F)c1` [Example 27, 4-(5-cyano-1-methyl-1H-pyrrol-2-yl)-N-cyclopropyl-2-(trifluoromethyl)benzenesulfonamide], the IC50 stood at 38.2 nM. In the case of `CCCNS(=O)(=O)c1ccc(-c2ccc(C#N)n2C)cc1C(F)(F)F` [Example 25, 4-(5-cyano-1-methyl-1H-pyrrol-2-yl)-N-propyl-2-(trifluoromethyl)benzenesulfonamide], the IC50 is 17.3 nM.

Take `Cn1c(C#N)ccc1-c1ccc(S(N)(=O)=O)cc1F` [Example 30, 4-(5-cyano-1-methyl-1H-pyrrol-2-yl)-3-fluorobenzenesulfonamide]: the IC50 is 91 nM. The same measure, in the same setting: under `Cn1c(C#N)ccc1-c1ccc(S(=O)(=O)NCC2CC2)c(F)c1` [Example 44, 4-(5-cyano-1-methyl-1H-pyrrol-2-yl)-N-(cyclopropylmethyl)-2-fluorobenzenesulfonamide] stands 45.6 nM; under `CN(C)S(=O)(=O)c1ccc(-c2ccc(C#N)n2C)cc1OC(F)(F)F` [Example 48, 4-(5-cyano-1-methyl-1H-pyrrol-2-yl)-N,N-dimethyl-2-(trifluoromethoxy)benzenesulfonamide], 62.7 nM. Same read-out and setting: under `CC(C)NS(=O)(=O)c1ccc(-c2ccc(C#N)n2C)c(F)c1` [Example 35, 4-(5-cyano-1-methyl-1H-pyrrol-2-yl)-3-fluoro-N-isopropylbenzenesulfonamide] stands 26.8 nM.

On to `CCCNS(=O)(=O)c1ccc(-c2ccc(C#N)n2C)c(F)c1` [Example 36, 4-(5-cyano-1-methyl-1H-pyrrol-2-yl)-3-fluoro-N-propylbenzenesulfonamide], for which the IC50 turned out to be 26.5 nM. The same measure, in the same setting: the value for `Cn1c(C#N)ccc1-c1ccc(S(=O)(=O)NC2CCC2)cc1F` [Example 40, 4-(5-cyano-1-methyl-1H-pyrrol-2-yl)-N-cyclobutyl-3-fluorobenzenesulfonamide] was 18.1 nM; that for `Cn1c(C#N)ccc1-c1ccc(S(=O)(=O)NCC2CC2)c(C(F)(F)F)c1` [Example 28, 4-(5-cyano-1-methyl-1H-pyrrol-2-yl)-N-(cyclopropylmethyl)-2-(trifluoromethyl)benzenesulfonamide] was 34.9 nM; that for `Cn1c(C#N)ccc1-c1ccc(S(=O)(=O)NC2CCC2)cc1` [Example 13, 4-(5-cyano-1-methyl-1H-pyrrol-2-yl)-N-cyclobutylbenzenesulfonamide] was 13.9 nM. For `Cn1c(C#N)ccc1-c1ccc(S(=O)(=O)NC2CCCCC2)cc1` [Example 15, 4-(5-cyano-1-methyl-1H-pyrrol-2-yl)-N-cyclohexylbenzenesulfonamide], the IC50 amounted to 58.9 nM.

For the compound `CCN(CC)S(=O)(=O)c1ccc(-c2ccc(C#N)n2C)cc1OC(F)(F)F` [Example 50, 4-(5-cyano-1-methyl-1H-pyrrol-2-yl)-N,N-diethyl-2-(trifluoromethoxy)benzenesulfonamide], the IC50 turned out to be 101 nM. The same measure, in the same setting: under `Cn1c(C#N)ccc1-c1ccc(S(=O)(=O)NC2CC2)cc1F` [Example 38, 4-(5-cyano-1-methyl-1H-pyrrol-2-yl)-N-cyclopropyl-3-fluorobenzenesulfonamide] stands 9.7 nM; under `CN(C)S(=O)(=O)c1ccc(-c2ccc(C#N)n2C)c(F)c1` [Example 32, 4-(5-cyano-1-methyl-1H-pyrrol-2-yl)-3-fluoro-N,N-dimethylbenzenesulfonamide], 128 nM. Consider `Cn1c(C#N)ccc1-c1cc(F)c(S(=O)(=O)NCC2CC2)cc1F` [Example 62, 4-(5-cyano-1-methyl-1H-pyrrol-2-yl)-N-(cyclopropylmethyl)-2,5-difluorobenzenesulfonamide], for which the IC50 worked out at 164 nM. For `CCNS(=O)(=O)c1ccc(-c2ccc(C#N)n2C)cc1OC(F)(F)F` [Example 49, 4-(5-cyano-1-methyl-1H-pyrrol-2-yl)-N-ethyl-2-(trifluoromethoxy)benzenesulfonamide], the IC50 worked out at 122 nM. In the case of `CC(C)NS(=O)(=O)c1ccc(-c2ccc(C#N)n2C)cc1OC(F)(F)F` [Example 51, 4-(5-cyano-1-methyl-1H-pyrrol-2-yl)-N-isopropyl-2-(trifluoromethoxy)benzenesulfonamide], the IC50 was 32.5 nM. On the same count and under the same terms, the value for `CNS(=O)(=O)c1ccc(-c2ccc(C#N)n2C)c(F)c1` [Example 31, 4-(5-cyano-1-methyl-1H-pyrrol-2-yl)-3-fluoro-N-methylbenzenesulfonamide] was 8.5 nM. Regarding `CNS(=O)(=O)c1cc(F)c(-c2ccc(C#N)n2C)cc1F` [Example 59, 4-(5-cyano-1-methyl-1H-pyrrol-2-yl)-2,5-difluoro-N-methylbenzenesulfonamide], the IC50 was determined as 36.1 nM. For `CN(C)S(=O)(=O)c1ccc(-c2ccc(C#N)n2C)cc1` [Example 2, 4-(5-cyano-1-methyl-1H-pyrrol-2-yl)-N,N-dimethylbenzenesulfonamide], the IC50 came out at 81.3 nM.

The assay is the same for the next values; noted with them: T47D alkaline phosphatase assay; antagonist mode in the presence of 1 nM progesterone; 24 hours.
`Cn1c(C#N)ccc1-c1ccc(S(=O)(=O)NC2CC2)c(F)c1` [Example 43, 4-(5-cyano-1-methyl-1H-pyrrol-2-yl)-N-cyclopropyl-2-fluorobenzenesulfonamide]: the “Active Dose” value was determined as 30 nM. Still for that read-out and setting: the value for `Cn1c(C#N)ccc1-c1ccc(S(=O)(=O)NC(C)(C)C)cc1` [Example 9, N-(tert-butyl)-4-(5-cyano-1-methyl-1H-pyrrol-2-yl)benzenesulfonamide] was 10000 nM; that for `Cn1c(C#N)ccc1-c1ccc(S(=O)(=O)NC(C)(C)C)c(OC(F)(F)F)c1` [Example 57, N-tert-butyl-4-(5-cyano-1-methyl-1H-pyrrol-2-yl)-2-(trifluoromethoxy)benzenesulfonamide] was 30 nM.
